The target of one data set is NF-κB (p65) (Homo sapiens, UniProt Q04206). Briefly: Enzyme-based ELISA NF-κB p65 inhibition assay. The note with it: for IC50: read-out: NF-κB p65 inhibition IC50, ELISA, rocaglamide positive control; for NF-κB (p65) inhibitory activity (result in words): inactive = IC50 > 10 µM. The format is biochemical.
The test system of data set [1] is HT-29 human colon cancer cell line.
In data set [2] the test system is panel of human cancer cell lines. The settings on record: reported previously; cited from earlier work.

Here are results for ten molecules from PMC3369275 (Tetrahedron, 2012).

Usually IC50 stands for the point on the concentration scale where inhibition reaches its midpoint.

Sequence of NF-κB (p65) (Q04206 whole entry): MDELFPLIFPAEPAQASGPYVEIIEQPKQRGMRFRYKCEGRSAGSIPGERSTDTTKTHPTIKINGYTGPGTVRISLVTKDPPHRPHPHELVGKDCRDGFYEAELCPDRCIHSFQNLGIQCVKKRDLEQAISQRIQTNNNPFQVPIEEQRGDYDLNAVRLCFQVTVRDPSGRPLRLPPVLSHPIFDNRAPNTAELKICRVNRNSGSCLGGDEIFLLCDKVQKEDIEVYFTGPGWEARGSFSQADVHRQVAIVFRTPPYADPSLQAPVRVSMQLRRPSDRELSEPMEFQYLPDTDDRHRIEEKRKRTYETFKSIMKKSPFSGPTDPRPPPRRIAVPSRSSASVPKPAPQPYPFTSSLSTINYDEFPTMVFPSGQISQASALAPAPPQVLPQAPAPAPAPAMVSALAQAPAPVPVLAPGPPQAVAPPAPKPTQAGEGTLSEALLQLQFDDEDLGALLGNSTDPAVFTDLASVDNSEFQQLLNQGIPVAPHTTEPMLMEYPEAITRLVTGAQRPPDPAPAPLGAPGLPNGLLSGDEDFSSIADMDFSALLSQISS

For 4,5-dihydrolychnopholide [Compound 13], at NF-κB (p65), the IC50 was over 10 µM.

Take 15-deoxygoyazensolide [Compound 10]: at NF-κB (p65), the “NF-κB (p65) inhibitory activity (result in words)” value (“NF-κB (p65) inhibitory activity” for short) is recorded as “active” and the half-maximal inhibitory concentration (IC50) was 3.2 µM. In data set [1], the IC50 is 0.26 µM.

Turning to `C=C1C(=O)OC2CC(C)CCC(=O)C(C)(OC(C)=O)CC(OC(=O)C(C)=CC)C12` [Compound 3, (4S,6R,7S,8S,10R)-1-oxo-8-angeloyloxy-10-acetoxygermacra-11(13)-en-6,12-olide], the IC50 at NF-κB (p65) is over 10 µM; in data set [1] it was 3 µM.

Regarding `C=C1C(=O)O[C@@H]2C/C(C)=C\CC(=O)[C@](C)(OC(C)=O)C[C@H](OC(=O)/C(C)=C\C)[C@@H]12` [Compound 4, (6R,7S,8S,10R)-1-oxo-8-angeloyloxy-10-acetoxygermacra-3(4),11(13)-dien-6,12-olide], the IC50 at NF-κB (p65) is over 10 µM.

Take `C=C1C(=O)OC2CC(C)C(OC)CC(=O)C(C)(OC(C)=O)CC(OC(=O)C(C)=CC)C12` [Compound 5, (3R,4R,6R,7S,8S,10R)-1-oxo-3-methoxy-8-angeloyloxy-10-acetoxygermacra-11(13)-en-6,12-olide]: at NF-κB (p65), the “NF-κB (p65) inhibitory activity” value was “active” and the half-maximal inhibitory concentration (IC50) worked out at 2.1 µM.

Turning to `C=C1C(=O)OC2CC(C)C(OC)CC(=O)C(C)(O)CC(OC(=O)C(C)=CC)C12` [Compound 6, (3R,4R,6R,7S,8S,10R)-1-oxo-3-methoxy-8-angeloyloxy-10-hydroxygermacra-11(13)-en-6,12-olide], the IC50 at NF-κB (p65) was over 10 µM.

With `C=C1C(=O)O[C@@H]2C[C@@H](C)/C=C\C(=O)[C@](C)(OC(C)=O)C[C@H](OC(=O)/C(C)=C\C)[C@@H]12` [Compound 7, ereglomerulide], the IC50 at NF-κB (p65) is over 10 µM.

`C=C(C)C(=O)O[C@H]1C[C@@]2(C)OC(=CC2=O)/C(CO)=C\[C@H]2OC(=O)C(=C)[C@H]12` [Compound 8, goyazensolide]: the “Cytotoxicity toward a panel of human cancer cell lines (result in words)” value (“Cytotoxicity toward a panel” for short) in data set [2] is listed as “exhibit cytotoxicity”. Also, at NF-κB (p65), the “NF-κB (p65) inhibitory activity” value is “active” and the IC50 turned out to be 3.8 µM.

`C=C1C(=O)O[C@@H]2/C=C(/C)C3=CC(=O)[C@@](C)(C[C@H](OC(=O)/C(C)=C\C)[C@@H]12)O3` [Compound 12, lychnopholide]: the “Cytotoxicity toward a panel” value in data set [2] is reported as “exhibit cytotoxicity”. Moreover, at NF-κB (p65), the “NF-κB (p65) inhibitory activity” value was “active” and the IC50 amounted to 2.9 µM.

For the molecule `C=C1C(=O)O[C@H]2[C@H]1CC/C(C)=C/CC[C@@]1(C)O[C@@H]21` [parthenolide, reference compound], in data set [2], the “Cytotoxicity toward a panel” value is recorded as “exhibit cytotoxicity”.
